# Laboratory results from PMC12508057, “Discovery of ETI41 and ETI60: novel selective endosomal Toll-like receptor inhibitors for the treatment of autoimmune diseases” (Experimental & Molecular Medicine, 2025).
# Target: T1, TLR9 (Mus musculus, UniProt Q9EQU3)
# T1 construct: RAW 264.7 and differentiated THP-1 cells were seeded into 96-well plates; endogenous in cells; host or cells: RAW 264.7
# T1 sequence (Q9EQU3 26-1032): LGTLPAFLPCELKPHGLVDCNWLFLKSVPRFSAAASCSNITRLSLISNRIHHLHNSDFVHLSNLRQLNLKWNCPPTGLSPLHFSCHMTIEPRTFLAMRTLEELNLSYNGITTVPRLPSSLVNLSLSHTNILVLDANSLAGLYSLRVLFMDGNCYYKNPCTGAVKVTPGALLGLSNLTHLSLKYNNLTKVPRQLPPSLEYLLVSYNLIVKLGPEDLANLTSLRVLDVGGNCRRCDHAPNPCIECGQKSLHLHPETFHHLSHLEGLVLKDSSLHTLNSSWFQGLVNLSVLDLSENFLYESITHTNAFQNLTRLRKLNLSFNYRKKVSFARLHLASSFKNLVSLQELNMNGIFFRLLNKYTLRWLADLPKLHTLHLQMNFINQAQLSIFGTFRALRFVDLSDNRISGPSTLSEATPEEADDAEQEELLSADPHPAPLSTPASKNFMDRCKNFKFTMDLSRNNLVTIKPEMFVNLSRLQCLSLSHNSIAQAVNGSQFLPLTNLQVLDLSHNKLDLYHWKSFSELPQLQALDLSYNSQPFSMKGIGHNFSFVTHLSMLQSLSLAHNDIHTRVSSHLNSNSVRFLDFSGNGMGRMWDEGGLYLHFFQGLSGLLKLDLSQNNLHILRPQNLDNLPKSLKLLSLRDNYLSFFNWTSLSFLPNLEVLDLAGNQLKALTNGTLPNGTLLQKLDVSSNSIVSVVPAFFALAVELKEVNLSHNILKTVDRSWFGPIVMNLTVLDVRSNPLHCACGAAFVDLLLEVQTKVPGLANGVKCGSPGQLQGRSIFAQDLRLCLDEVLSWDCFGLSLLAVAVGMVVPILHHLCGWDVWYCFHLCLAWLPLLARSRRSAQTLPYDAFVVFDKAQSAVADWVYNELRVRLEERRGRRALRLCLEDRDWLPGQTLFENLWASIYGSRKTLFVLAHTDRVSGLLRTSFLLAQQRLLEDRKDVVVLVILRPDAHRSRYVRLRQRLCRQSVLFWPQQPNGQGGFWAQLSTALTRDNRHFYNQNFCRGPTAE
# Assay: Real-time quantitative PCR in BMDCs stimulated with ODN2395
# Assay type: cell-based
# Conditions: primary BMDCs, 0.2 and 1 μM, ODN2395 1 μM
# Experimental: Bone marrow cells from 8-week-old C57BL/6 mice (Jackson Laboratory) were cultured in RPMI 1640 with 20 ng/ml granulocyte-macrophage colony-stimulating factor (GM-CSF; Thermo Fisher Scientific) for 8 days. Bone marrow-derived dendritic cell (BMDC) purity was confirmed by fluorescence-activated cell sorting (FACS), showing 84% F4/80^− and CD11c^+ cells. […] Total mRNA was extracted using TRIzol reagent (Thermo Fisher Scientific) and reverse transcribed using the ReverTra Ace qPCR RT Kit (Toyobo). mRNA levels were determined using SYBR Green PCR Master Mix (Kapa Biosystems) and a CFX Connect RT-PCR System (Bio-Rad). Primers used were directed against IL-12p40, IFN-β, CD40 and GAPDH.
# All experiments were independently conducted three times.
smiles,measurement,value
Cc1cc2c(N)c3c(nc2n1CCCN(C)C)CCCCCC3 [ETI41],"Production of IL-12p40, IFN-β and CD40 (mRNA)",significantly inhibited
